Data published in ChEMBL document CHEMBL4483862, “Open-source discovery of chemical leads for next-generation chemoprotective antimalarials” (2018).
pIC50: −log10 of the molar value.

System: Plasmodium berghei
Assay: Luciferase/luciferin-expressing antifolate-resistant parasites were used to infect a culture of HepG2 cells that were pre-incubated with compounds. Infected hepatocytes emit light due to the luciferase reaction. Assay results are presented as the percent inhibition of light emission compared to control. […]
Assay type: functional
Settings: sporozoite; for IC90: read-out: LUCIFERASE INFECTION ASSAY - IC90
[1] = read-out: LUCIFERASE INFECTION ASSAY - IC50

Row | Structure (SMILES) | IC90 | pIC50 [1] | other results
1 | CC(C)(C)c1ccc(Oc2ccc(N)cc2)cc1 | 4.63 µM |  | pIC50 (PBLUC_HILL_SLOPE 1.38, PBLUC_R_SQUARED 0.811, read-out: LUCIFERASE INFECTION ASSAY - IC50): 6.03
2 | Cc1ccc(Oc2ccc(OCC(=O)NC3CCN(C(C)C)CC3)cc2)cc1 | > 10 µM | < 5.00 | 
3 | CC(C)(C)c1ccc(C(=O)NCc2ccco2)cc1 | 10.4 µM |  | pIC50 (PBLUC_HILL_SLOPE 5.38, PBLUC_R_SQUARED 0.421, read-out: LUCIFERASE INFECTION ASSAY - IC50): 5.16
4 | O=C(NC1CC1)c1ccc(-c2cnc3c(NCC4CC4)nccn23)cc1 | 6.12 µM |  | pIC50 (HEPG2TOX_HILL_SLOPE 1.1, HEPG2TOX_R_SQUARED 0.94, PBLUC_HILL_SLOPE 4.24, PBLUC_R_SQUARED 0.447, read-out: LUCIFERASE INFECTION ASSAY - IC50): 5.44
5 | CN(C)CCCOc1ccc(-c2nnc3ccc(-c4cccc(Oc5ccccc5)c4)cn23)cc1 | > 10 µM |  | pIC50 (PBLUC_HILL_SLOPE 15.3, PBLUC_R_SQUARED 0.363, read-out: LUCIFERASE INFECTION ASSAY - IC50): 5.03
6 | CC(=O)c1ccc(-c2cnc3sc(NCCN4CCOCC4)nn23)s1 | > 8.74 µM |  | pIC50 (PBLUC_HILL_SLOPE 1.89, PBLUC_R_SQUARED 0.43, read-out: LUCIFERASE INFECTION ASSAY - IC50): 5.22
7 | COc1ccc(-n2ncc(C(=O)Nc3nc(-c4ccc5ccccc5c4)cs3)c2C(F)(F)F)nn1 | 2.93 µM |  | pIC50 (HEPG2TOX_HILL_SLOPE 2.25, 10.1, HEPG2TOX_R_SQUARED 0.989, 0.350, PBLUC_HILL_SLOPE 1.53, 1.53, PBLUC_R_SQUARED 0.682, 0.949, read-out: LUCIFERASE INFECTION ASSAY - IC50): 6.16
8 | COc1ccccc1-c1ccc2ncc(-c3cccnc3)n2n1 | 4.41 µM |  | pIC50 (HEPG2TOX_HILL_SLOPE 0.11, HEPG2TOX_R_SQUARED 0.0747, PBLUC_HILL_SLOPE 11.9, PBLUC_R_SQUARED 0.526, read-out: LUCIFERASE INFECTION ASSAY - IC50): 5.44
9 | COc1ccc(-c2cnc3cnc(-c4ccc(CO)cc4)cn23)cc1 | 9.11 µM |  | pIC50 (PBLUC_HILL_SLOPE 11.2, PBLUC_R_SQUARED 0.457, read-out: LUCIFERASE INFECTION ASSAY - IC50): 5.13
10 | O=C(NNC(=O)c1ccccc1OCc1cn2ccccc2n1)c1ccc2ccccc2n1 | 1.74 µM |  | pIC50 (HEPG2TOX_HILL_SLOPE 1.26, HEPG2TOX_R_SQUARED 0.832, PBLUC_HILL_SLOPE 7.59, PBLUC_R_SQUARED 0.237, read-out: LUCIFERASE INFECTION ASSAY - IC50): 5.88
11 | CC(C)c1nc2cc(NC(=O)CSc3nnnn3C3CC3)ccc2o1 | > 10 µM |  | pIC50 (PBLUC_HILL_SLOPE 2.34, PBLUC_R_SQUARED 0.391, read-out: LUCIFERASE INFECTION ASSAY - IC50): 5.40
12 | CC[n+]1c(/C=C/c2ccc(SC)cc2)ccc2ccccc21 | > 7.62 µM |  | pIC50 (PBLUC_HILL_SLOPE 11.6, PBLUC_R_SQUARED 0.0577, read-out: LUCIFERASE INFECTION ASSAY - IC50): < 5.12
13 | O=S(=O)(Oc1cccc(C(F)(F)F)c1)c1cc(S(=O)(=O)c2ccccc2)cs1 | > 7.36 µM | < 5.13 | 
14 | CC(=O)Nc1ccc(Sc2cc(C)nc(C(C)C)n2)cc1 | 9.81 µM |  | pIC50 (PBLUC_HILL_SLOPE 2.86, PBLUC_R_SQUARED 0.342, read-out: LUCIFERASE INFECTION ASSAY - IC50): 5.34
15 | Cc1c(-c2ccccc2)nc2ccccc2c1C(=O)Nc1ccc2c(c1)OCCO2 | 6.7 µM |  | pIC50 (FFLUC_HILL_SLOPE 1.33, FFLUC_R_SQUARED 0.515, PBLUC_HILL_SLOPE 1.27, PBLUC_R_SQUARED 0.667, read-out: LUCIFERASE INFECTION ASSAY - IC50): 5.92
16 | CC(NC1CCCCCC1)C(=O)c1c[nH]c2ccccc12 (stereo not drawn) | > 10 µM | < 5.00 | 
17 | COc1ccc(-c2cc(CN(C)c3ccc(S(=O)(=O)NC(C)(C)C)cc3[N+](=O)[O-])on2)cc1 | 4.2 µM |  | pIC50 (HEPG2TOX_HILL_SLOPE 80.3, HEPG2TOX_R_SQUARED 0.674, PBLUC_HILL_SLOPE 12.7, PBLUC_R_SQUARED 0.427, read-out: LUCIFERASE INFECTION ASSAY - IC50): 5.45
18 | CCCCc1ccc(N(C(=O)Nc2ccc(Cl)cc2)C2=NC(CC)CS2)cc1 (stereo not drawn) | > 10 µM |  | pIC50 (PBLUC_HILL_SLOPE 93.6, PBLUC_R_SQUARED 0.111, read-out: LUCIFERASE INFECTION ASSAY - IC50): 5.00
19 | CNS(=O)(=O)Cc1ccccc1CNCc1cccc(Oc2ccccc2)c1 | > 10 µM | < 5.00 | 
20 | Cc1nn(Cc2ccccc2)c(C)c1C(=O)N1CCN(CCOc2ccc(Cl)cc2)CC1 | > 10 µM |  | pIC50 (PBLUC_HILL_SLOPE 3.21, PBLUC_R_SQUARED 0.27, read-out: LUCIFERASE INFECTION ASSAY - IC50): 5.00
21 | O=[N+]([O-])c1cnc(Sc2nnc(O)n2-c2ccc(OCc3ccccc3)cc2)s1 | > 7.72 µM | 5.42 | 
22 | CN(C)c1ccc(C(=O)N/N=C/c2cc(Cl)cc(Cl)c2O)cc1 | > 9.37 µM | < 5.03 | 

Row | Structure (SMILES) | IC90 | pIC50 [1] | other results
23 | CCOC(=O)Nc1ccc2c(Cn3cnc4sc5c(c4c3=O)CCC5)cc(=O)oc2c1 | > 10 µM |  | pIC50 (FFLUC_HILL_SLOPE 14, FFLUC_R_SQUARED 0.282, read-out: LUCIFERASE INFECTION ASSAY - IC50): < 5.00
24 | Cc1nn(-c2ccccc2)nc1C(=O)NCc1ccccc1-c1ccc(CN(C)C)cc1 | 5.83 µM | 5.43 | 
25 | CCOC(=O)c1sc(NC(=O)Nc2ccc(Cl)c(Cl)c2)cc1C | 2.36 µM |  | pIC50 (HEPG2TOX_HILL_SLOPE 22.1, HEPG2TOX_R_SQUARED 0.877, PBLUC_HILL_SLOPE 3.44, PBLUC_R_SQUARED 0.676, read-out: LUCIFERASE INFECTION ASSAY - IC50): 5.90
26 | COC(=O)c1ccc(O)c(CSc2ccc(Cl)cc2)c1 | > 10.7 µM |  | pIC50 (FFLUC_HILL_SLOPE 15.4, FFLUC_R_SQUARED 0.267, PBLUC_HILL_SLOPE 7.94, PBLUC_R_SQUARED 0.227, read-out: LUCIFERASE INFECTION ASSAY - IC50): 5.07
27 | CN(C(=O)CCc1cc(C(C)(C)C)c(O)c(C(C)(C)C)c1)C1CCS(=O)(=O)C1 (stereo not drawn) | > 10 µM | < 5.00 | 
28 | CC(O)c1ccc(-c2ccccc2NC(=O)c2ccccn2)s1 (stereo not drawn) | > 10 µM |  | pIC50 (HEPG2TOX_HILL_SLOPE 8.65, HEPG2TOX_R_SQUARED 0.867, read-out: LUCIFERASE INFECTION ASSAY - IC50): < 5.00
29 | CCOc1ccccc1N(C(=O)C1CC=CCC1)c1nc2ccccc2s1 (stereo not drawn) | > 10 µM |  | pIC50 (HEPG2TOX_HILL_SLOPE 6.4, HEPG2TOX_R_SQUARED 0.335, PBLUC_HILL_SLOPE 2.71, PBLUC_R_SQUARED 0.0983, read-out: LUCIFERASE INFECTION ASSAY - IC50): 5.11
30 | CCCN1C(=O)C(=O)N(CN2CCc3sccc3C2)C1=O | > 2 µM | < 5.70 | 
31 | O=[N+]([O-])c1ccccc1CS(=O)(=O)c1nc2ccccc2s1 | > 9.87 µM |  | pIC50 (HEPG2TOX_HILL_SLOPE 1.54, HEPG2TOX_R_SQUARED 0.3, PBLUC_HILL_SLOPE 1.66, PBLUC_R_SQUARED 0.0862, read-out: LUCIFERASE INFECTION ASSAY - IC50): 5.23
32 | CCc1ccc(NC(=O)C[n+]2c3n(c4c(F)c(F)ccc42)CCCCC3)cc1 | 9.39 µM |  | pIC50 (HEPG2TOX_HILL_SLOPE 3.71, HEPG2TOX_R_SQUARED 0.507, PBLUC_HILL_SLOPE 2.96, PBLUC_R_SQUARED 0.697, read-out: LUCIFERASE INFECTION ASSAY - IC50): 5.35
33 | O=c1[nH]nc(Sc2ncc([N+](=O)[O-])s2)n1Cc1ccccc1 | > 9.84 µM |  | pIC50 (FFLUC_HILL_SLOPE 3.03, FFLUC_R_SQUARED 0.344, HEPG2TOX_HILL_SLOPE 12.4, HEPG2TOX_R_SQUARED 0.571, PBLUC_HILL_SLOPE 13, PBLUC_R_SQUARED 0.0851, read-out: LUCIFERASE INFECTION ASSAY - IC50): 5.06
34 | CCCc1c(C(=O)OCC)cnn1-c1c(Cl)cc(Cl)cc1Cl | > 9.12 µM |  | pIC50 (HEPG2TOX_HILL_SLOPE 1.55, HEPG2TOX_R_SQUARED 0.952, PBLUC_HILL_SLOPE 4.67, PBLUC_R_SQUARED 0.0395, read-out: LUCIFERASE INFECTION ASSAY - IC50): 5.08
35 | CN1CCc2nc(NC(=O)C3CCN(c4ncc(C(F)(F)F)cc4Cl)CC3)sc2C1 | > 10 µM | < 5.00 | 
36 | COC(=O)c1scc(C)c1N1C(=O)C=CC1=O | > 13.1 µM |  | pIC50 (PBLUC_HILL_SLOPE 9.1, PBLUC_R_SQUARED 0.327, read-out: LUCIFERASE INFECTION ASSAY - IC50): < 4.88
37 | O=C(Nc1nc2ccccc2[nH]1)C(Sc1ccccc1)c1ccccc1 (stereo not drawn) | > 10 µM | < 5.00 | 
38 | O=C1CC(c2cccc(Cl)c2Cl)c2c([nH]c(-c3ccccc3)nc2=O)N1 (stereo not drawn) | > 8.54 µM | < 5.07 | 
39 | O=C1C=CC(=O)N1c1cc(Cl)ccc1Cl | > 13.6 µM |  | pIC50 (FFLUC_HILL_SLOPE 10.4, FFLUC_R_SQUARED 0.533, read-out: LUCIFERASE INFECTION ASSAY - IC50): < 4.87
40 | CCn1c(-c2ccccc2)c(C(=O)COc2ccccc2OC)c2ccccc21 | > 10 µM | < 5.00 | 
41 | CC(=O)N(c1nc(/C=C/C(=O)c2ccc(F)c(F)c2)cs1)c1c(C)cccc1C | > 10 µM | < 5.00 | 
42 | CCOc1cccc(C2Nc3ccccc3C(=O)N2C2CC2)c1O (stereo not drawn) | 9.55 µM |  | pIC50 (HEPG2TOX_HILL_SLOPE 0.644, HEPG2TOX_R_SQUARED 0.857, PBLUC_HILL_SLOPE 2.2, PBLUC_R_SQUARED 0.323, read-out: LUCIFERASE INFECTION ASSAY - IC50): 5.45
43 | COc1ccc(C(NCC(=O)Nc2sccc2C(N)=O)c2ccccc2)cc1 (stereo not drawn) | > 10 µM |  | pIC50 (PBLUC_HILL_SLOPE 3.52, PBLUC_R_SQUARED 0.517, read-out: LUCIFERASE INFECTION ASSAY - IC50): 5.27
44 | CCCNC(=O)C1(C)CCCN(C(=O)c2cccc(OC(C)=O)c2C)C1 (stereo not drawn) | > 9.16 µM | < 5.04 | 
